Experimental findings from US20220098197A1, “SALTS OF HETEROCYCLIC COMPOUND AND USE THEREOF” (priority 2019, published 2022) are described below.

The subject of assay [1] is NF-κB signalling pathway in RAW264.7 macrophages. Description: Western blotting of NF-κB signalling pathway, RAW264.7. Conditions: CT-NA 0.5, 1.0, 10, or 100 μM, LPS (100 ng/ml). The class given is cell-based, mouse. As to the method:
The method for total protein extraction and Western blotting determination was as follows. The lung tissue was homogenized in RIPA buffer (0.5M Tris-HCl, pH 7.4, 1.5M NaCl, 2.5% deoxycholic acid, 10% NP-40, 10 mM EDTA) containing protease and phosphatase inhibitors (Sigma-Aldrich, St. Louis, Mo.). RAW264.7 macrophages were seeded into two 6-well plates at 70-80% confluence. After overnight starvation with serum-free RPMI-1640 medium, RAW264.7 macrophages were pretreated with CT-NA (0.5, 1, 10 and 100 μM) for 1 hour. Thereafter, one 6-well plate was treated with LPS (100 ng/ml) for 1 hour, and the other was treated with PGD2 (10 μM) for 1 hour. After washing three times with PBS, the cells were directly lysed for 30 minutes with shaking in RIPA buffer containing protease and phosphatase inhibitors in an ice environment. Then, the lysate was centrifuged at 12,300×g for 15 minutes at 4° C., and the supernatant was collected. […] was performed to measure protein concentration. Equal amounts of protein (30 μg) were resolved on 12% SDS-PAGE and transferred to 0.45 um polyvinylidene fluoride (PVDF) membranes (Millipore, Bedford, Mass.). The membranes were blocked with 5% (wt/vol) skimmed milk powder at room temperature for 1-2 hrs to reduce non-specific binding. […]
A general note: A western blot detects proteins with antibodies after separation by electrophoresis.

Assay [2] relates to CS-induced ALI mice. Nature of the assay: CS-induced lung injury model: lung MPO assay. Format: in vivo, Balb/c mice. Conditions: CS exposure; CT-NA 10 and 30 mg/kg, Dex 1 mg/kg; p<0.01.
Method: Model preparation: The mice were randomly divided into 5 groups (12 mice in each group), which were the control group (the mice were exposed to fresh air), the saline group (the mice were exposed to cigarette smoke), dexamethasone (Dex) group (1 mg/kg) (the mice were exposed to cigarette smoke), CT-NA 10 mg/kg group and CT-NA 30 mg/kg group (the mice were exposed to cigarette smoke). According to the grouping, the mice were intragastrically administered saline, Dex and CT-NA, respectively. Thereafter, the mice were exposed to fresh air or cigarette smoke generated from 3R4F research-grade cigarettes (containing about 600 mg TPM/m^3 and 29.9 mg nicotine/m^3) in a cuboid plastic box (65×50x×45 cm). Ten cigarettes were burned every day for seven days. After one cigarette was burned, the next cigarette was ignited. […] The lung tissue was collected for determination of lung weight coefficient, histological examination and MPO activity.
In order to evaluate MPO activity, 50 mg strips of left lung tissue were washed, and then homogenized with normal saline. MPO activity was determined by measuring the changes in absorbance at 460 nm according to the detection standard by using MPO assay kit.
The subject of assay [3] is CS-induced ALI mice. Nature of the assay: CS-induced lung injury model: lung weight ratio (coefficient). The class given is in vivo, Balb/c mice. To be noted: CT-NA 10 and 30 mg/kg intragastric; CS exposure; p<0.05. On the procedure:
Model preparation: The mice were randomly divided into 5 groups (12 mice in each group), which were the control group (the mice were exposed to fresh air), the saline group (the mice were exposed to cigarette smoke), dexamethasone (Dex) group (1 mg/kg) (the mice were exposed to cigarette smoke), CT-NA 10 mg/kg group and CT-NA 30 mg/kg group (the mice were exposed to cigarette smoke). According to the grouping, the mice were intragastrically administered saline, Dex and CT-NA, respectively. Thereafter, the mice were exposed to fresh air or cigarette smoke generated from 3R4F research-grade cigarettes (containing about 600 mg TPM/m^3 and 29.9 mg nicotine/m^3) in a cuboid plastic box (65×50x×45 cm). Ten cigarettes were burned every day for seven days. After one cigarette was burned, the next cigarette was ignited. […] 24 hrs after the last exposure to the cigarette smoke, the partial pressure of oxygen (PO2) of all mice was measured by the Moor VMS-OXY™ measuring instrument, which was used to measure the oxygenated/deoxygenated hemoglobin concentration and oxygen saturation (percentage) in the microcirculation at the wavelength range of 500 to 650 nm. […] As an index of pulmonary edema, the lung weight ratio was measured by dividing the individual lung weight of each mouse after aspirating the blood tissue from the lung surface, by the total body weight.

For another assay, the system named is LPS-induced ALI mice. Nature of the assay: LPS-induced ALI model: histological examination (H&E). The class given is in vivo, Balb/c mice. On the procedure: Specific pathogen-free (SPF) Balb/c mice (♂/♀; 20-26 g; 8 weeks old) were purchased from Shanghai SIPPR-BK Experimental Animal Co., Ltd. Mice were kept in an isolated ventilated cage in an environment of 40-60% humidity, 24±2° C., and 12 hrs/12 hrs dark-light cycle, and had free access to food and water. The method for preparing the LPS-induced ALI model was simply described as follows. The mice were randomly divided into a control group (12 mice) and an LPS group (48 mice). The LPS group (48 mice) was further divided into four subgroups (12 mice in each subgroup). The unanaesthetized mice in the four subgroups of LPS were intragastrically administered with normal saline (NS), CT-NA at 10 mg/kg or 30 mg/kg, and Dex at 1 mg/kg, respectively. […] 24 hrs after LPS challenge, the oxygen saturation (SO2) of all mice was measured by a Moor VMS-OXY™ instrument which measured SO2 (%) in the microcirculation at the wavelength range of 500 to 650 nm. […]
The lower lobe of the left lung of each mouse was inflated with neutral buffered 10% formalin instilled at room temperature under constant pressure of 22 to 25 cm H2O for 48 hrs. […] Pulmonary edema, hemorrhage, alveolar wall thickening and infiltration of neutrophils and inflammatory cells were counted and scored to evaluate the severity of lung injury. […] The total lung injury score was expressed as the sum of the four criteria. […]

`CN([C@@H]1CCc2c(CC(=O)[O-])c3cccnc3n2C1)S(=O)(=O)c1ccc(F)cc1.[Na+]` [Sodium salt hydrate]: the “degradation of IκBα and P65 induced by LPS” value in assay [1] is “strongly reversed”. Besides, the “LPS-induced IκBα and P65 activation” value in assay [1] (dose-dependent) was “reduced”. Moreover, the “MPO activity of lung tissues” value in the assay on CS-induced ALI mice [2] was “attenuated”. Moreover, the lung weight coefficient entry with CS-induced ALI mice [3] is “partially reduced”. In the assay on LPS-induced ALI mice (CT-NA 10 mg/kg (P<0.05) and 30 mg/kg (P<0.01), Dex 1 mg/kg (P<0.01)), the pathological scores result was “considerably reduced”. Moreover, in the assay on LPS-induced ALI mice (CT-NA 10 or 30 mg/kg (dose dependence) or Dex 1 mg/kg, H&E), the “LPS-induced pulmonary histopathological changes” value was “significant reduction”.
